In US20250263408A1 (Uniquest Pty Ltd, priority 2022, published 2025) one finds EC50 and IC50 data, which are given here for twelve molecules.

The structures appear in SMILES notation.

The subject of test [1] is Ba/F3-WT (wild type) cells. In words: Ba/F3 Proliferation Assay, Ba/F3-WT (wild type) cells with mIL-3 (Resazurin). The format is cell-based. As to conditions: Mus musculus, BaF3, 48 h, Ba/F3-WT cells +mIL-3, 48-hour incubation.
A further test concerns the target T1, Syk (Homo sapiens, UniProt P43405).
T1 construct: purchased Promega
The test can be described thus: Syk Biochemical Assay (ADP-Glo luminescence). As to conditions: ATP 40 μM final, 60 minutes, read-out: SYK Biochem IC50. How it is done:
Compounds were serially diluted in 100% DMSO, prior to an intermediate dilution in water. In a low volume white 384-well Proxiplate (Perkin Elmer), 1 μL of compound (0.4% final DMSO) was added to 3 μL of 10 ng/well Syk (Promega) and 0.2 mg/mL Poly-E4Y1 substrate (Promega) in assay buffer (final 40 mM Tris-HCl pH 7.4, 20 mM MgCl2, 0.1 mg/mL BSA) for 5 minutes. The reaction was initiated by addition of 1 μL of ATP (40 μM final) and allowed to proceed for 60 minutes at room temperature. The reaction was terminated by addition of 5 μL of ADP-Glo Reagent Mix (Promega) containing 1 mM MgCl2 for 45 minutes at room temperature. 10 μL of Kinase Detection Reagent (Promega) was added and incubated for 10 minutes at room temperature, before luminescence was measured using an Ensight Multimode Plate Reader (Perkin Elmer).

Another test concerns the target T2, Ba/F3-Syk cells (Homo sapiens, UniProt P43405).
T2 construct: fused on or other part: Possible but unprinted fusion partner: TEL (ETV6), the usual partner for Ba/F3 lines transformed by Syk; Nothing on a partner is printed
The test can be described thus: Ba/F3 Proliferation Assay, Ba/F3-Syk cells (Resazurin). It is filed as cell-based. As to conditions: 48-hour incubation.

On to `C[C@@H](Oc1nc(-c2cnn(C)c2)cc2ncccc12)[C@@H]1CNCCO1` [Compound 2.5, 7-(1-methyl-1H-pyrazol-4-yl)-5-[(1R)-1-[(2S)-morpholin-2-yl]ethoxy]-1,6-naphthyridine], for which the EC50 worked out at 2540 nM in test [1] and 76.7 nM on Ba/F3-Syk cells. Moreover, the IC50 on Syk came to 38.9 nM.

As for `CCn1cc(-c2cc3ncccc3c(OC[C@@H]3CNCCO3)n2)cn1` [Compound 2.6, 7-(1-ethyl-1H-pyrazol-4-yl)-5-{[(2S)-morpholin-2-yl]methoxy}-1,6-naphthyridine], the EC50 in test [1] is 1530 nM; at Ba/F3-Syk cells it was 57.2 nM. In addition, the IC50 on Syk is 15.6 nM.

Regarding `CC(C)n1cc(-c2cc3ncccc3c(OC[C@@H]3CNCCO3)n2)cn1` [Compound 2.7, 5-{[(2S)-morpholin-2-yl]methoxy}-7-[1-(propan-2-yl)-1H-pyrazol-4-yl]-1,6-naphthyridine], the EC50 worked out at 934 nM in test [1] and 37.6 nM on Ba/F3-Syk cells. The IC50 on Syk turned out to be 12.8 nM.

With `COCCn1cc(-c2cc3ncccc3c(OC[C@@H]3CNCCO3)n2)cn1` [Compound 2.8, 7-[1-(2-methoxyethyl)-1H-pyrazol-4-yl]-5-{[(2S)-morpholin-2-yl]methoxy}-1,6-naphthyridine], the values for the EC50 (in test [1]; on Ba/F3-Syk cells) were 1440 nM and 196 nM, respectively. In addition, on Syk, the IC50 is 37.4 nM.

In the case of `COCn1cc(-c2cc3ncccc3c(OC[C@@H]3CNCCO3)n2)cn1` [Compound 2.9, 7-[1-(methoxymethyl)-1H-pyrazol-4-yl]-5-{[(2S)-morpholin-2-yl]methoxy}-1,6-naphthyridine], the EC50 in test [1] was found to be 2360 nM; on Ba/F3-Syk cells, 187 nM. In addition, the IC50 on Syk is 40.6 nM.

For the molecule `CC(C)(C)n1cc(-c2cc3ncccc3c(OC[C@@H]3CNCCO3)n2)cn1` [Compound 2.10, 7-(1-tert-butyl-1H-pyrazol-4-yl)-5-{[(2S)-morpholin-2-yl]methoxy}-1,6-naphthyridine], the EC50 in test [1] was determined as 2780 nM; on Ba/F3-Syk cells, 39.9 nM. In addition, the IC50 at Syk was 14.5 nM.

With `Cn1cc(-c2cc3ncccc3c(OCC3CNCC(C)(C)O3)n2)cn1` (stereo not drawn) [Compound 2.13, 5-[(6,6-dimethylmorpholin-yl)methoxy]-7-(1-methyl-1H-pyrazol-4-yl)-1,6-naphthyridine], the EC50 was determined as 2400 nM in test [1] and 79 nM at Ba/F3-Syk cells. In addition, on Syk, the IC50 worked out at 51.6 nM.

Take `FC(F)n1cc(-c2cc3ncccc3c(OC[C@@H]3CNCCO3)n2)cn1` [Compound 2.15, 7-[1-(difluoromethyl)-1H-pyrazol-4-yl]-5-{[(2S)-morpholin-2-yl]methoxy}-1,6-naphthyridine]: the EC50 in test [1] is 2890 nM; on Ba/F3-Syk cells it was 139 nM. Further, the IC50 on Syk was determined as 74.8 nM.

For `FC(F)(F)n1cc(-c2cc3ncccc3c(OC[C@@H]3CNCCO3)n2)cn1` [Compound 2.16, 5-{[(2S)-morpholin-2-yl]methoxy}-7-[1-(trifluoromethyl)-1H-pyrazol-4-yl]-1,6-naphthyridine], the EC50 in test [1] was greater than 10000 nM; on Ba/F3-Syk cells it was 493 nM. Also, the IC50 at Syk amounted to 222 nM.

In the case of `FC(F)(F)c1[nH]ncc1-c1cc2ncccc2c(OC[C@@H]2CNCCO2)n1` [Compound 2.17, 5-{[(2S)-morpholin-2-yl]methoxy}-7-[5-(trifluoromethyl)-1H-pyrazol-4-yl]-1,6-naphthyridine], the EC50 in test [1] was greater than 10000 nM; on Ba/F3-Syk cells, 2460 nM. In addition, the IC50 on Syk was found to be 789 nM.

Consider `Cc1cc(-c2cc3ncccc3c(OC[C@@H]3CNCCO3)n2)cs1` [Compound 2.18, 7-(5-methylthiophen-3-yl)-5-{[(2S)-morpholin-2-yl]methoxy}-1,6-naphthyridine], for which the figures for the EC50 (in test [1]; on Ba/F3-Syk cells) were 1860 nM and 78.2 nM, respectively. Also, the IC50 at Syk turned out to be 47.2 nM.

Regarding `Cc1ccc(-c2cc3ncccc3c(OC[C@@H]3CNCCO3)n2)s1` [Compound 2.19, 7-(5-methylthiophen-2-yl)-5-{[(2S)-morpholin-2-yl]methoxy}-1,6-naphthyridine], the results for the EC50 (in test [1]; at Ba/F3-Syk cells) were 2780 nM and 198 nM, respectively. Moreover, the IC50 on Syk is 68.5 nM.
